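Cultured in 96-well plates, cells were exposed to test compound for 48 hours across five concentrations. TGI marks complete inhibition of growth.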
Columns and labels:
Experiment in all cases: growth of human tumour cells (NCI), 48 h
786-0 renal = test system: 786-0 renal
A498 renal = test system: A498 renal
A549 NSCLC = test system: A549 NSCLC
ACHN renal = test system: ACHN renal
BT-549 breast = test system: BT-549 breast
CAKI-1 renal = test system: CAKI-1 renal
CCRF-CEM leukemia = test system: CCRF-CEM leukemia
COLO 205 colon = test system: COLO 205 colon
DU-145 prostate = test system: DU-145 prostate
EKVX NSCLC = test system: EKVX NSCLC
HCC-2998 colon = test system: HCC-2998 colon
HCT-116 colon = test system: HCT-116 colon
HCT-15 colon = test system: HCT-15 colon
HL-60(TB) leukemia = test system: HL-60(TB) leukemia
HOP-62 NSCLC = test system: HOP-62 NSCLC
HOP-92 NSCLC = test system: HOP-92 NSCLC
HS 578T breast = test system: HS 578T breast
HT29 colon = test system: HT29 colon
IGROV1 ovarian = test system: IGROV1 ovarian
K-562 leukemia = test system: K-562 leukemia
KM12 colon = test system: KM12 colon
M14 melanoma = test system: M14 melanoma
MCF7 breast = test system: MCF7 breast
MDA-MB-231 breast = test system: MDA-MB-231 breast
MDA-MB-435 = test system: MDA-MB-435
MOLT-4 leukemia = test system: MOLT-4 leukemia
NCI-H226 lung = test system: NCI-H226 lung
NCI-H23 lung = test system: NCI-H23 lung
NCI-H460 lung = test system: NCI-H460 lung
NCI-H522 lung = test system: NCI-H522 lung
NCI/ADR-RES ovarian = test system: NCI/ADR-RES ovarian
OVCAR-3 ovarian = test system: OVCAR-3 ovarian
OVCAR-4 ovarian = test system: OVCAR-4 ovarian
OVCAR-5 ovarian = test system: OVCAR-5 ovarian
OVCAR-8 ovarian = test system: OVCAR-8 ovarian
PC-3 prostate = test system: PC-3 prostate
RPMI-8226 leukemia = test system: RPMI-8226 leukemia
RXF 393 renal = test system: RXF 393 renal
SF-268 CNS = test system: SF-268 CNS
SF-295 CNS = test system: SF-295 CNS
SF-539 CNS = test system: SF-539 CNS
SK-MEL-2 melanoma = test system: SK-MEL-2 melanoma
SK-MEL-28 melanoma = test system: SK-MEL-28 melanoma
SK-MEL-5 melanoma = test system: SK-MEL-5 melanoma
SK-OV-3 ovarian = test system: SK-OV-3 ovarian
SN12C renal = test system: SN12C renal
SNB-19 CNS = test system: SNB-19 CNS
SNB-75 CNS = test system: SNB-75 CNS
SR leukemia = test system: SR leukemia
SW-620 colon = test system: SW-620 colon
T-47D breast = test system: T-47D breast
TK-10 renal = test system: TK-10 renal
U251 CNS = test system: U251 CNS
UACC-257 melanoma = test system: UACC-257 melanoma
UACC-62 melanoma = test system: UACC-62 melanoma
UO-31 renal = test system: UO-31 renal

Measured: TGI

COc1ccc(CCNC(=O)Cc2ccccc2CCO)cc1OC
> 100 µM: all assays above
